In US20200061212A1, “SOLID ORAL COMPOSITION CONTAINING DYES” (COSMO TECHNOLOGIES LTD., priority 2016, published 2020):

Key:
[1] = test system: subjects undergoing screening or surveillance colonoscopy; test: Phase III placebo-controlled trial: Adenoma or Carcinoma detection rate and false positive rate at HD white light colonoscopy; format: in vivo, human; details: for ADR: Difference in Proportions of Methylene Low Dose vs. Placebo: 100 mg; for ADR: Difference in Proportions of Methylene Full Dose vs. Methylene Blue Low Dose: 200 mg vs 100 mg; for False Positive Rate: subjects with excisions and without any histologically proven Adenoma or Carcinoma, %: % of subjects with excision
From the text: The detection rate was defined as the proportion of patients with at least one histologically proven Adenoma or Carcinoma.
In other words, in the study the standard of care (white light endoscopy) and the chromoendoscopy by oral administration of the MB tablets were compared. In the acquisition and recording of the colonoscopies, the latest and more technologically advanced, high definition (HD) endoscopes were used. Thus, the study allowed the direct comparison of the effect of the MB tablets on the adenoma or carcinoma detection rate to the current gold standard colonoscopy, i.e. the high definition (HD) white light colonoscopy. For this reason, in the context of the present example, the terms “placebo”, “white light high definition endoscopy” (WLHD) and “white light endoscopy” can be used interchangeably, and definitively indicate the current standard of care for the endoscopic examination of the colon. Due to the unavoidable impossibility to obtain double-blinding for the clinical study, since the endoscopist performing the colonoscopy was able to see if the colon was blue colored or unstained, an additional, underpowered, masking group was introduced. […] These patients had the colon stained in blue, but were not taken into account in the calculation of the study parameters. In this way, while performing the colonoscopy, the endoscopist was not aware if a patient belonged to the group of the full dose (whose patients were part of the statistical calculation) or to the “masking” group (whose patients received a lower dose of the composition and were not part of the statistical analysis).
Subjects aged between 50 and 75 years undergoing full colonoscopy for screening or surveillance of colorectal cancer were recruited.
Diet: In preparation for the colonoscopy patients adopted a low residue diet for three days prior to the colonoscopy. On the third day of the low residue diet patients must fast for at least 3 hours before starting intake of the bowel prep and study drug.
Bowel cleansing preparation: all subjects received a full dose regimen of 4 liters PEG-based bowel cleansing preparation starting in the late afternoon (after 6 pm) before the colonoscopy day. The subjects drank at least 250 mL of solution every 15 min, so that the intake of the cleansing preparation, and study drug were completed in 4 hours.
Dose regimen: The subjects were randomized 2:2:1 into three groups.
All the patients participating to the study, regardless of whether they belonged to Group one, Group two or Group three, received a timetable detailing the volumes of bowel cleansing preparation to be consumed, and the times to be respected:
The subjects had to drink about 250 mL of bowel cleansing preparation every 15 minutes, equivalent to 1 liter of bowel cleansing preparation every hour. The timeframe between an oral administration of tablets and the following one had to be 1 hour.
Adenoma was defined as a histologically proven Vienna Grade 3 to 4.2 or a histologically proven traditional serrated adenoma (TSA), or a histologically proven sessile serrated adenoma (SSA). Histologically proven Carcinoma was defined as Vienna Grade 4.3 to 5b.
Day of colonoscopy 02: patients returned to the clinic for the colonoscopy. The colonoscopy was performed using high definition (HD) colonoscope. Narrow-Band-Imaging (NBI) and all other electronic chromoendoscopy and contrast enhancement techniques, as well as zoom endoscopy or magnification were not permitted. The endoscopist performed the full colonoscopy and recorded and removed all the detected adenoma and/or carcinoma. The endoscopist recorded the morphology and size and classified the found polyps, adenomas and carcinomas, and recorded the pit pattern according to the Paris and Kudo's classification and following the endoscopy charter.

P-gp [2] = molecular target: T1, P-gp (Homo sapiens, UniProt P08183); test: in vitro transporter substrate study; format: in vitro ADME; details: in vitro studies
P-gp [3] = molecular target: T1, P-gp; test: in vitro transporter inhibition study; format: in vitro ADME; details: in vitro studies
[4] = low dose 100 mg, Per Protocol N=225
[5] = patients with number of excisions 0-1, FAS
[6] = patients with number of excisions 0-1, PP
[7] = patients with number of excisions ≤3, FAS
[8] = patients with number of excisions ≤3, PP

T1 sequence (P08183 whole entry): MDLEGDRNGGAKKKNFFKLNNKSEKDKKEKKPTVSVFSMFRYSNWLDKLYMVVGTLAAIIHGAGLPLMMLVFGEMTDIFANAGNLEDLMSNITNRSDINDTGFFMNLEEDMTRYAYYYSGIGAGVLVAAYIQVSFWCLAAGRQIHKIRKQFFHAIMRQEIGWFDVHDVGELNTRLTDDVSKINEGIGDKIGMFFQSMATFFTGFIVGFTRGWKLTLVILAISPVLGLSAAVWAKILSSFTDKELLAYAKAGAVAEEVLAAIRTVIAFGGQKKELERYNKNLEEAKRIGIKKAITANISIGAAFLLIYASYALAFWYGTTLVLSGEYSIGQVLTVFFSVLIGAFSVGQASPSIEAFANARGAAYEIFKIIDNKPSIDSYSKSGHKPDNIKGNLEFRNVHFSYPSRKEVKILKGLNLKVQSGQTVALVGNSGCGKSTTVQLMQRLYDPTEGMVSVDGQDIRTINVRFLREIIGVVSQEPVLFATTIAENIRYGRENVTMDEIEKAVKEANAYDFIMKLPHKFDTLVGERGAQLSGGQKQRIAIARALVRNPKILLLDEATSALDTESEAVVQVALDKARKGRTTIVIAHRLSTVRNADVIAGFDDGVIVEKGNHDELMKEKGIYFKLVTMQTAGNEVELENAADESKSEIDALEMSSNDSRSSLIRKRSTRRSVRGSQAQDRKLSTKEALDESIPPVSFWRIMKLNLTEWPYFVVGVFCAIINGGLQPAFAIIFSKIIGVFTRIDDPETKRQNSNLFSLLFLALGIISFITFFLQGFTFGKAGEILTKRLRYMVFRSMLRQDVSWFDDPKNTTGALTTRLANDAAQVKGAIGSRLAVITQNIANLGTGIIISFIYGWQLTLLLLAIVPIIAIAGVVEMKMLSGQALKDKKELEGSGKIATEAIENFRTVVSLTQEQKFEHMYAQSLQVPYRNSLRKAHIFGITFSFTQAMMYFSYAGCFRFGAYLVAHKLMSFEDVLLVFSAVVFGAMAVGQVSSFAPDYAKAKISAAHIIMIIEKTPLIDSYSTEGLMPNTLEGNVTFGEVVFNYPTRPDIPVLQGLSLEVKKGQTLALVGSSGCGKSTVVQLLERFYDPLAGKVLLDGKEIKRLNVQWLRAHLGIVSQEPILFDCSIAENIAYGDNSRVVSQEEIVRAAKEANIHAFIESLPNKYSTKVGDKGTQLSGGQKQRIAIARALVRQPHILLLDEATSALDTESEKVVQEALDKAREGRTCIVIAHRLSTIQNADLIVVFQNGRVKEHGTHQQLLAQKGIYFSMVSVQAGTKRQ

Compound: CN(C)c1ccc2nc3ccc(=[N+](C)C)cc-3sc2c1 [Methylene blue, Methylthioninium Chloride (Methylene Blue)]
- ADR: Difference in Proportions of Methylene Low Dose vs. Placebo ([1]; FAS): 3.64
- ADR: Difference in Proportions of Methylene Low Dose vs. Placebo ([1]; Per Protocol): 5.86
- ADR: Difference in Proportions of Methylene Full Dose vs. Methylene Blue Low Dose ([1]; FAS): 4.84
- ADR: Difference in Proportions of Methylene Full Dose vs. Methylene Blue Low Dose ([1]; Per Protocol): 4.46
- ADR: Difference in Proportions of Methylene Blue Full Dose vs. Placebo ([1]; 200 mg, FAS): 8.48
- Absolute difference in ADR between methylene blue full dose and placebo ([1]; 200 mg, FAS): 8.48%
- Percent decrease in FPR for methylene full dose vs placebo ([1]; 200 mg, FAS): 21.6%
- Percent increase in ADR for methylene full dose vs placebo ([1]; 200 mg, FAS): 17.7%
- Percent decrease in FPR for methylene full dose vs placebo ([1]; 200 mg, PP): 24.8%
- ADR: Difference in Proportions of Methylene Blue Full Dose vs. Placebo ([1]; 200 mg, Per Protocol): 10.32
- Absolute difference in ADR between methylene blue full dose and placebo ([1]; 200 mg, Per Protocol): 10.32%
- Percent increase in ADR for methylene blue full dose vs placebo ([1]; 200 mg, Per Protocol): 21.5%
- Absolute difference in proportion of subjects between methylene blue full dose and placebo, Table 14 (non-polypoid lesions) ([1]; FAS): 8.83%
- Absolute difference in proportion of subjects with diminutive adenomas between methylene blue full dose and placebo ([1]; FAS): 6.21%
- Difference in False Positive Rates of Methylene Blue Full Dose vs. Methylene Blue Low Dose ([1]; FAS): −2.88
- Difference in False Positive Rates of Methylene Blue Full Dose vs. Placebo ([1]; FAS): −6.44
- Difference in False Positive Rates of Methylene Blue Low Dose vs. Placebo ([1]; FAS): −3.56
- Percent increase in proportion of subjects for methylene blue full dose vs placebo, Table 14 (non-polypoid lesions) ([1]; FAS): 25.2%
- Percent increase in proportion of subjects with diminutive adenomas for methylene blue full dose vs placebo ([1]; FAS): 20.1%
- ADR, % ([1]; Number of excisions 0-1, low dose 100 mg, FAS): 20.83%
- ADR, % ([1]; Number of excisions 4-6, full dose 200 mg, FAS): (85.06) %
- ADR, % ([1]; Number of excisions 4-6, low dose 100 mg, FAS): 87.80%
- ADR, % ([1]; Number of excisions >6, full dose 200 mg, FAS): (97.22) %
- ADR, % ([1]; Number of excisions >6, low dose 100 mg, FAS): 100.00%
- ADR, % ([1]; Number of excisions ≤3, low dose 100 mg, FAS): 38.12%
- Difference in False Positive Rates of Methylene Blue Full Dose vs. Methylene Blue Low Dose ([1]; Per Protocol): −3.03
- Difference in False Positive Rates of Methylene Blue Full Dose vs. Placebo ([1]; Per Protocol): −7.51
- Difference in False Positive Rates of Methylene Blue Low Dose vs. Placebo ([1]; Per Protocol): −4.49
- Absolute difference in proportion of subjects with a histologically proven adenoma between methylene blue full dose and placebo ([1]; excluding carcinoma, FAS): 9.33%
- Percent increase in proportion of subjects with a histologically proven adenoma for methylene blue full dose vs placebo ([1]; excluding carcinoma, FAS): 20.3%
- Percentage of subjects with a histologically proven adenoma (excluding carcinoma) ([1]; full dose 200 mg, FAS N=485): 55.26%
- Percentage of subjects with diminutive adenomas ([1]; full dose 200 mg, FAS N=485): 37.11%
- Percentage of subjects with non-polypoid lesions ([1]; full dose 200 mg, FAS N=485): 43.92%
- Subjects with excision, % ([1]; full dose 200 mg, FAS N=485): (73.40) %
- Total number of subjects with a histologically proven adenoma (excluding carcinoma) ([1]; full dose 200 mg, FAS N=485): 268
- Total number of subjects with diminutive adenomas ([1]; full dose 200 mg, FAS N=485): 180
- Total number of subjects with non-polypoid lesions ([1]; full dose 200 mg, FAS N=485): 213
- ADR in patients with number of excisions 0-1 ([1]; full dose 200 mg, PP): 25.32%
- ADR in patients with number of excisions ≤3 ([1]; full dose 200 mg, PP): 68.24%
- Subjects with excision, % ([1]; full dose 200 mg, Per Protocol N=455): (75.38) %
- Subjects with at least one histologically proven Adenoma or Carcinoma (ADR), % ([1]; low dose 100 mg (MB tablets of Example 6), FAS N=241): 51.45%
- Subjects with excision, % ([1]; low dose 100 mg, FAS N=241): 69.71%
- False Positive Rate: subjects with excisions and without any histologically proven Adenoma or Carcinoma, % ([1]; low dose 100 mg, FAS): 26.19%
- Subjects with at least one histologically proven Adenoma or Carcinoma (ADR), % [1, 4]: 53.78%
- Subjects with excision, % [1, 4]: 72.44%
- False Positive Rate: subjects with excisions and without any histologically proven Adenoma or Carcinoma, % ([1]; low dose 100 mg, Per Protocol): 25.77%
- Absolute difference in ADR between methylene blue full dose and placebo [1, 5]: 7.24%
- Percent increase in ADR for methylene full dose vs placebo [1, 5]: 38.2%
- Absolute difference in ADR between methylene blue full dose and placebo [1, 6]: 9.15%
- Percent increase in ADR for methylene full dose vs placebo [1, 6]: 45.4%
- Absolute difference in ADR between methylene blue full dose and placebo [1, 7]: 9.40%
- Percent increase in ADR for methylene full dose vs placebo [1, 7]: 26.2%
- Absolute difference in ADR between methylene blue full dose and placebo [1, 8]: 11.47%
- Percent increase in ADR for methylene full dose vs placebo [1, 8]: 40.8%
- substrate of the membrane transport protein P-gp (P-gp [2]): possible substrate
- induction of CYP isozyme 2B6 (CYP 2B6): induces
- induction of CYP isozyme 1A2 (CYP 1A2): induces
- inhibition of P-gp (P-gp [3]): weak inhibitor
